Read-outs that look alike come from different tables or passages of the source.
Tests used:
[1] = oxidation reduction potential of aminopolycarboxylic acid ferric complex salts (bleaching agents); format: physicochemical; conditions: vs. NHE, pH = 6
Text: Then, practical examples of the aminopolycarboxylic acid ferric complex salt in this invention are illustrated below together with their oxidation reduction potentials, but the bleaching agents for use in this invention are not limited to these compounds.
The oxidation reduction potential of the bleaching agent is defined as the oxidation reduction potential obtained by the method described in Transactions of the Faraday Society, Vol. 55, (1959), pages 1312-1313.

[2] = acid dissociation constant pKa of secondary amines of formula (II); conditions: in water at room temperature (about 25° C.)
[3] = Example 3: turbidity of concentrated stabilizing replenisher after passage of time; format: physicochemical; set-up: key to Turbidity after Passage of Time: E: Neither turbidity nor precipitation.; G: Turbidity occurred very slightly.; M: Slightly precipitation formed at the bottom of the vessel in addition to turbidity.; B: Precipitation layer of 5 mm or more formed on the bottom of the vessel; conditions: 40° C.
Method: One liter of the concentrated stabilizing replenisher shown below was prepared and filled in a 1.2 liter polyethylene bottle.
After allowing to stand the concentrated solution thus-prepared at 40° C. for 1 month or 6 months, the turbidity of the solution was visually observed.
In addition, the evaluation standards of the turbidity of the solution with the passage of time in Table C are as follows.

[4] = Example 4: image storage stability (magenta fading), color reversal material; conditions: 80° C. for 3 days
Method: Sample 401 prepared was slit in 35 mm width, and after perforated in the same format as films on the market and applying thereto a uniform light exposure, the sample was processed according to the following processing steps using an hanging type automatic processor.
The image storage stability test was carried out under the condition of 80° C. for 3 days. Also, in a bright place, the presence of unevenness of the sample was visually observed.

[5] = Example 1: evaluation of image storage stability (magenta fading), stabilizing solution; conditions: for M Fading: 2 weeks 60° C. 20% RH
Method: In addition, the time for the stabilization step was changed by changing the length of the processing rack.
Thereafter, the sample was allowed to stand for 2 weeks under the conditions of 60° C. 20% RH and then the magenta density was measured again. Thus, magenta fading was evaluated by the reduced magenta density in the density stage that the magenta density after processing was 1.5. (M fading)

[6] = Example 6: image storage stability (magenta fading), image stabilizer in conditioning bath
Method: The same processing steps as in Example 4 were carried out except for changing the conditioning solution and the stabilizing solution as follows.
In this case, the time for the final stabilizing step was one minute and the time for the conditioning step was changed as shown in Table E in the processing.
By using the same method as in Example 1, the image storage stability of the processed film obtained and the vapor pressure of formaldehyde were evaluated.

[7] = Example 2: fading of the magenta density at intermediate density portion; conditions: formaldehyde 4.0 mmol, 2 weeks 60° C., 70% RH
Method: The following processing steps were carried out using the following processing solutions and a cine type automatic processor.
According to a sample, fading of the magenta density at the intermediate density portion and the occurrence of yellow stain at the minimum density portion were observed.

[8] = system: human body; conditions: cited from earlier work
[9] = water
[10] = 5 mmol/l, stabilization time 10 sec.
[11] = 5 mmol/l, stabilization time 20 sec.
[12] = 5 mmol/l, stabilization time 60 sec.
[13] = 3 mmol/l, time of conditioning bath 40 sec.
[14] = 3 mmol/l, time of conditioning bath 90 sec.
[15] = 3 mmol/l, time of conditioning bath 120 sec.
[16] = 27 mmol/l, stabilization time 10 sec.
[17] = 27 mmol/l, stabilization time 20 sec.
[18] = 27 mmol/l, stabilization time 60 sec.
[19] = 13 mmol/l, time of conditioning bath 40 sec.
[20] = 13 mmol/l, time of conditioning bath 90 sec.
[21] = 13 mmol/l, time of conditioning bath 120 sec.

1,3-Propylenediaminetetraacetic Acid Ferric Complex Salt [compound 7]
Oxidation Reduction Potential [1]: 250 mV

1,4-Butylenediaminetetraacetic Acid Ferric Salt [compound 4]
Oxidation Reduction Potential [1]: 230 mV

CCCCNC [Compound 11-5]
pKa [2]: 10.9

OCCN(CCO)Cn1cccn1 [Compound A-1]
Turbidity after Passage of Time ([3]; 0.5 mol, 1 month): G | Turbidity after Passage of Time ([3]; 0.5 mol, 6 months): M | M Fading ([4]; 6 mmol/l): 0.04

Cc1ccn(CN(CCO)CCO)n1 [Compound A-11]
M Fading [5, 10]: 0.10 | M Fading [5, 11]: 0.05 | M Fading [5, 12]: 0.00 | M Fading [6, 13]: 0.01 | M Fading [6, 14]: 0.00 | M Fading [6, 15]: 0.00

OCCN(CCO)Cn1cncn1 [Compound A-12]
Turbidity after Passage of Time ([3]; 0.5 mol, 1 month): G | Turbidity after Passage of Time ([3]; 0.5 mol, 6 months): M

c1cnn(CN2CCOCC2)c1 [Compound A-16]
M Fading [5, 10]: 0.02 | M Fading [5, 11]: 0.00 | M Fading [5, 12]: 0.00 | M Fading ([4]; 6 mmol/l): 0.05

c1cnn(CN2CCCCC2)c1 [Compound A-17]
M Fading [5, 10]: 0.02 | M Fading [5, 11]: 0.01 | M Fading [5, 12]: 0.00

c1cnn(CN2CCN(Cn3cccn3)CC2)c1 [Compound A-22]
M Fading [5, 10]: 0.01 | M Fading [5, 11]: 0.00 | M Fading [5, 12]: 0.00 | Turbidity after Passage of Time ([3]; 0.5 mol, 1 month): G | Turbidity after Passage of Time ([3]; 0.5 mol, 6 months): M | M Fading ([4]; 6 mmol/l): 0.00 | M Fading [6, 13]: 0.01 | M Fading [6, 14]: 0.00 | M Fading [6, 15]: 0.00

c1ncn(CN2CCN(Cn3cncn3)CC2)n1 [Compound A-23]
M Fading [5, 10]: 0.00 | M Fading [5, 11]: 0.00 | M Fading [5, 12]: 0.00 | Turbidity after Passage of Time ([3]; 0.5 mol, 1 month): G | Turbidity after Passage of Time ([3]; 0.5 mol, 6 months): M | M Fading ([4]; 6 mmol/l): 0.00 | M Fading [6, 13]: 0.00 | M Fading [6, 14]: 0.00 | M Fading [6, 15]: 0.00

c1ncn(CN2CCOCC2)n1 [Compound A-26]
M Fading [5, 10]: 0.03 | M Fading [5, 11]: 0.01 | M Fading [5, 12]: 0.01 | M Fading ([4]; 6 mmol/l): 0.00

OCCN1CCN(Cn2cccn2)CC1 [Compound A-32]
M Fading ([4]; 6 mmol/l): 0.00 | M Fading [6, 13]: 0.01 | M Fading [6, 14]: 0.01 | M Fading [6, 15]: 0.01

OCN1CCN(Cn2cncn2)CC1 [Compound A-45]
M Fading [5, 10]: 0.04 | M Fading [5, 11]: 0.01 | M Fading [5, 12]: 0.01 | M Fading [6, 13]: 0.01 | M Fading [6, 14]: 0.01 | M Fading [6, 15]: 0.01

c1nc[nH]n1 [Compound I-4]
M-Fading ([7]; formula (I) 4 mmol): 0.16 | M-Fading ([7]; formula (I) 16 mmol): 0.17

O=C1N(CO)CCN1CO [Dimethylolethyleneurea, reference compound]
Turbidity after Passage of Time ([3]; 0.3 mol, 1 month): M | Turbidity after Passage of Time ([3]; 0.3 mol, 6 months): B (Precipitation layer of 5 mm or more formed on the bottom of the vessel.)

C=O [Formaldehyde, reference compound]
M Fading [5, 10]: 0.20 | M Fading [5, 11]: 0.15 | M Fading [5, 12]: 0.08 | M Fading [5, 16]: 0.03 | M Fading [5, 17]: 0.00 | M Fading [5, 18]: 0.00 | M-Fading ([7]; no formula (I) or (II) additive): 0.15 | Turbidity after Passage of Time ([3]; 2.0 mol, 1 month): M | Turbidity after Passage of Time ([3]; 2.0 mol, 6 months): M | turbidity / precipitates on storage (in words) ([3]; concentrated stabilizing replenisher, 1 month or 6 months): white floatings precipitates accumulated on the bottom of the vessel | M Fading [6, 13]: 0.11 | M Fading [6, 14]: 0.00 | M Fading [6, 15]: 0.00 | M Fading [6, 19]: 0.03 | M Fading [6, 20]: 0.00 | M Fading [6, 21]: 0.00 | allowable concentration in a working environment ([8]; Japan Association of Industrial Health): ≤ 0.5 ppm | harm on inhalation (in words) ([8]; human body): harmful for the human body

C1N2CN3CN1CN(C2)C3 [Hexamethylenetetramine, reference compound]
M Fading [5, 10]: 0.30 | M Fading [5, 11]: 0.31 | M Fading [5, 12]: 0.30 | M Fading [5, 16]: 0.28 | M Fading [5, 17]: 0.27 | M Fading [5, 18]: 0.28 | fading inhibition effect (in words) ([5]; Table A): the fading inhibition effect is insufficient even when a large amount of the compound is used | M Fading ([4]; 6 mmol/l): 0.29 | M Fading ([4]; 100 mmol/l): 0.10 | M Fading [6, 13]: 0.25 | M Fading [6, 14]: 0.22 | M Fading [6, 15]: 0.10 | M Fading [6, 19]: 0.09 | M Fading [6, 20]: 0.05 | M Fading [6, 21]: 0.02

CNC [II-1]
pKa [2]: 10.9

C=CCNCC=C [II-3]
pKa [9]: 9.3

CCNCCO [II-6]
pKa [2]: 10.1

CNCCO [II-8]
pKa [2]: 9.8

CNCCCCO [II-9]
pKa [2]: 9.6

CCCCNCCC#N [II-10]
pKa [2]: 8.3

CC(C)NCCC#N [II-11]
pKa [2]: 8.0

CNCC(=O)N(C)C [II-12]
pKa [2]: 8.8

CCNC[Si](C)(C)C [II-13]
pKa [2]: 11.1

CCN(CC)CCNC [II-14]
pKa [2]: 9.9

CNCCNC [II-15]
pKa [2]: 9.9

CCNCCNCC [II-16]
pKa [2]: 10.2

OCCNCCNCCO [II-17]
pKa [2]: 9.2

CCNCCCNCC [II-18]
pKa [2]: 10.6

C1COCCN1 [II-21]
M-Fading ([7]; formula (II) 4 mmol): 0.04

C1CNCCN1 [II-22]
M-Fading ([7]; formula (II) 2 mmol): 0.03 | M-Fading ([7]; formula (II) 4 mmol): 0.02

C1CCCNCC1 [II-23]
pKa [2]: 10.9

CC1CCNCC1 [II-24]
pKa [2]: 10.8

CC1CNC(C)CN1 (stereo not drawn) [II-25]
pKa [2]: 9.7

CCOC(=O)N1CCNCC1 [II-26]
pKa [2]: 8.3

C1NCC2CNCC1C2 [II-27]
pKa [2]: 11.3

Diethylenetriaminepentaacetic Acid Ferric Complex Salt [compound 9]
Oxidation Reduction Potential [1]: 80 mV

Glycol Ether Diaminetetraacetic Acid Ferric Complex Salt [compound 6]
Oxidation Reduction Potential [1]: 240 mV

Iminodiacetic Acid Ferric Complex Salt [compound 3]
Oxidation Reduction Potential [1]: 210 mV

Methyliminodiacetic Acid Ferric Complex Salt [compound 2]
Oxidation Reduction Potential [1]: 200 mV

N-(2-Acetamido)iminodiacetic Acid Ferric Complex Salt [compound 1]
Oxidation Reduction Potential [1]: 180 mV
